Legend:
TxA₂ Synthase [1] = biological target: T1, TxA₂ Synthase (Rattus norvegicus, UniProt P49430); test: In vitro effect on TxB₂ synthesis in whole blood during clotting (RIA); format: cell-based; settings: for times more potent than the reference compound ASA (TxA₂ synthesis in whole blood): ratio to ASA; for times more potent than the reference compound Dazoxiben (TxA₂ synthesis in whole blood): ratio to Dazoxiben
T1 construct: Blood was withdrawn from the abdominal aorta of the animals; from tissue; host or cells: whole blood of reduced renal mass (RRM) rats, allowed to clot 1 h at 37°C
T1 sequence (P49430 1-533): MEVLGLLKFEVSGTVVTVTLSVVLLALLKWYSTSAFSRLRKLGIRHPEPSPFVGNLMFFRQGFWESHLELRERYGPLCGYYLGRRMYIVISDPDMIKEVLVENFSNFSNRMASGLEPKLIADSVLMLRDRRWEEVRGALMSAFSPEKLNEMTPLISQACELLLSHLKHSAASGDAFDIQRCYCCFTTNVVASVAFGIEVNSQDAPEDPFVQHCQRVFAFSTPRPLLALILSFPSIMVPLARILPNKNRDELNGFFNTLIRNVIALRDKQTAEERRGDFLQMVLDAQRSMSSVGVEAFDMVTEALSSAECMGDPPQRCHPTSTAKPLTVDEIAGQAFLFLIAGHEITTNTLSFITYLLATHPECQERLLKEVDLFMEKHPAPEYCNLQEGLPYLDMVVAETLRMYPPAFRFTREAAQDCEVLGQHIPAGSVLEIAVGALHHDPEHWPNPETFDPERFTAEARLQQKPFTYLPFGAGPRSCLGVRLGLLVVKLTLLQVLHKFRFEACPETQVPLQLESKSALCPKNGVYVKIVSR
Protocol: (§1) Their ability to inhibit TxA₂ Synthase activity (as reflected by TxB₂ generated in whole blood during clotting or in isolated glomeruli) was tested in vitro and ex vivo in the rat.
(§2) The effect of the compounds on TxA₂ synthesis was evaluated in serum and in glomeruli isolated from kidney cortex of reduced renal mass rats (RRM). Ablation of >70% of renal mass in the rat results in hypertension, proteinuria and glomerular sclerosis of the remnant kidney. Rats with a remnant kidney have increased excretion of thromboxane in the urine when compared with normal rats [Purkerson et al.-Proc.Natl.Acad.Sci.USA 82, 193, 1985].
Blood was withdrawn from the abdominal aorta of the animals under light ether anesthesia.
Samples were then allowed to clot for 1 h at 37°C, centrifuged at 3000 rpm for 10 min, serum collected and stored at -20°C until assayed. TxB₂ levels were determined by RIA according to previously described procedures [Patrono et al.-Thromb.Res. 17, 3/4, 317, 1980] using highly specific antibody.

TxA₂ Synthase [2] = biological target: T1, TxA₂ Synthase; test: In vitro effect on TxB₂ synthesis in isolated glomeruli (RIA); format: cell-based
Protocol: as §1, §2
The isolation of glomeruli was performed as previously described [Patrignani et al., - J. Pharm. Exp. Ther. 228, 2, 472, 1984]
The isolated glomeruli of 4 rats were pooled, suspended in modified Krebs buffer (pH 7.3) and divided into portions of 1 ml each containing a concentration of the test compounds or of the reference compounds.
The TxA₂ synthesis was induced by incubating the glomeruli under shaking at 37°C for 1 h. At that time the incubation was stopped by centrifugation at +4°C, the supernatant collected and stored at -20°C until assayed by RIA.

TxA₂ Synthase [3] = biological target: T1, TxA₂ Synthase; test: Ex vivo inhibition of TxA₂ synthesis in serum after oral administration; settings: 1 h, p.o., blood taken one hour after treatment, read-out: ED₅₀ inhibition of the synthesis of TxA₂ (ex vivo)
Protocol: as §1
The ex vivo experiments were performed as follows.
The compounds were orally administered to RRM rats by gavage at the dose of 2.5 mg/kg in 0.5% methocel. One hour after treatment rats were anaesthetised with ether, blood was withdrawn from the abdominal aorta and allowed to clot for 1 h at 37°C. Samples were then centrifuged, serum collected and stored at -20°C until assayed.

[4] = tested on: chronically cannulated hypertensive rats (SHR); test: Antihypertensive activity, intra-arterial blood pressure and heart rate; format: in vivo
Protocol: The antihypertensive activity of the compounds of the invention was tested in chronically cannulated hypertensive rats (SHR).
For intra-arterial measurements of blood pressure (MBP) catheters (PE50 Clay Adams) were implanted in the right carotid artery under alothane anesthesia. Two days after surgery the animals were placed in a Ballman cage and the arterial catheter was connected to a stathman P23 Db pressure transducer and a Beckman multichannel R611 BP recorder for continuous monitoring of MBP and heart rate (HR).
Measurements were made predrug and 0.5, 1, 2, 4, 6 h after drug or vehicle (methocel 0.5% w/v).

[5] = Orientative acute oral toxicity; set-up: species or system Mice and rats; settings: in vivo; single oral administration, assessed on the seventh day after treatment; read-out: orientative acute toxicity (LD₅₀)
Protocol: The toxicity of the compounds of the invention is negligible, so that they can be safely used in therapy. Mice and rats which had been deprived of food for nine hours were treated orally with single administrations of increasing doses of compounds of the invention, then housed and normally fed. For example the orientative acute toxicity (LD₅₀) of the compound FCE 24265, assessed on the seventh day after treatment, was higher than 800 mg/kg.

[6] = RRM rats whole blood, clotting 1 h at 37°C, read-out: In vitro effect on TxB₂ synthesis in RRM rats whole blood, IC₅₀

SMILES | IC50 (TxA₂ Synthase [1]) [nM] | IC50 (TxA₂ Synthase [2]) [nM] | IC50 (TxA₂ Synthase [1]; [6]) [nM] | times more potent than the reference compound ASA (TxA₂ synthesis in whole blood) (TxA₂ Synthase [1]) [times] | times more potent than the reference compound Dazoxiben (TxA₂ synthesis in whole blood) (TxA₂ Synthase [1]) [times] | IC50 (TxA₂ Synthase [2]; RRM rats isolated glomeruli, incubation 1 h at 37°C, read-out: In vitro effect on TxB₂ synthesis in RRM rats glomeruli, IC₅₀) [nM] | times more potent than ASA on glomerular TxB₂ synthesis (TxA₂ Synthase [2]; glomeruli, ratio to ASA) | times more potent than Dazoxiben on glomerular TxB₂ synthesis (TxA₂ Synthase [2]; glomeruli, ratio to Dazoxiben) [times] | ED50 (TxA₂ Synthase [3]) [mg/kg] | changes in heart rate [4] | time until blood pressure returned toward normal levels ([4]; after treatment) [h] | peak effect on blood pressure (MBP) ([4]; peak reached at 30 minutes postdrug) [mm Hg] | LD50 at 168 h [5] [mg/kg]
CC(=O)Oc1ccccc1C(=O)O [ASA, Acetylsalicylic acid, reference compound] | 42000 | 140000 | – | – | – | – | – | – | – | – | – | – | –
CCOC(=O)C1=C(C)NC(C)=C(C(=O)OCC)C1c1cccc(-n2ccnc2)c1 [FCE 24265, 1,4-dihydro-2,6-dimethyl-4-[3-(1H-imidazol-1-yl)phenyl]-3,5-pyridinedicarboxylic acid, diethyl ester] | – | – | 170 | 247 | 7 | 36 | ~4,000 times | 4.7 | 2.3 | No changes | 3 | -30 ± 4 | > 800
CCOC(=O)C1=C(C)NC(C)=C(C(=O)OCC)C1c1cccc(-c2cccnc2)c1 [FCE 26055, 1,4-dihydro-2,6-dimethyl-4-[3-(3-pyridyl)phenyl]-3,5-pyridinedicarboxylic acid, diethyl ester] | – | – | 450 | 90 | 3 | – | – | – | – | – | – | – | –
